Results taken from patent publication US11013812B2, “Ice-based lipid nanoparticle formulation for delivery of mRNA” (Translate Bio, Inc., priority 2016, dated 2021).

test: Percent mRNA encapsulation of lipid nanoparticle formulations (fluorescence-based detection of mRNA); assay type: physicochemical; conditions: LNP of cationic lipid:DOPE:DMG-PEG 2K (molar ratio 60:35:5); 5 mg mRNA LNP preparations
Source text: In some embodiments, one particular application of the novel lipid composition comprising a sterol-based cationic lipid, a helper lipid, and a PEG or PEG-modified lipid is pulmonary delivery of mRNA, such as CFTR mRNA.
In this process, the lipids dissolved in ethanol and the mRNA dissolved in citrate buffer were mixed using a pump system. […] The resultant formulation mixture was in citrate buffer containing 20% ethanol. The formulation was subjected to a buffer exchange and the resultant formulation was adjusted to the desired mRNA concentration and stored frozen until further use. Final concentration: 0.5 mg/mL CFTR mRNA (encapsulated). % mRNA Encapsulation: 90%. Size: 60 nm. PDI: 0.14.

Structure (SMILES) | % mRNA encapsulation [%]
CCCCCCCCCCC(O)CN(CCN1CCN(CCN(CC(O)CCCCCCCCCC)CC(O)CCCCCCCCCC)CC1)CCN(CC(O)CCCCCCCCCC)CC(O)CCCCCCCCCC (centres unmarked) [C12-200] | 39
CC(C)CCCC(C)C1CCC2C3CC=C4CC(OC(=O)CCc5cnc[nH]5)CCC4(C)C3CCC12C [ICE, (3S, 10R, 13R, 17R)-10, 13-dimethyl-17-((R)-6-methylheptan-2-yl)-2,3,4,7,8,9, 10, 11, 12, 13, 14, 15, 16, 17-tetradecahydro-1H-cyclopenta[a]phenanthren-3-yl 3-(1H-imidazol-4-yl)propanoate] | 90
CCCCCCCCCCC(O)CN(CCCC(C)C1OC(=O)C(C(C)CCCN(CC(O)CCCCCCCCCC)CC(O)CCCCCCCCCC)OC1=O)CC(O)CCCCCCCCC (centres unmarked) [Target 24, 3-(5-(bis(2-hydroxydodecyl)amino)pentan-2-yl)-6-(5-((2-hydroxydodecyl)(2-hydroxyundecyl)amino)pentan-2-yl)-1,4-dioxane-2,5-dione] | 59

More lines, now with the values ahead:

% mRNA encapsulation [%] | Structure (SMILES)
49 | CCCCCCCC/C=C\CCCCCCCC(=O)OCC(CN(C)C)OC(=O)CCCCCCC/C=C\CCCCCCCC (centres unmarked) [DODAP, 1,2-dioleoyl-3-dimethylammonium-propane]
51 | CCCCCCCC/C=C\CCCCCCCCOCC(CN(C)C)OCCCCCCCC/C=C\CCCCCCCC (centres unmarked) [DODMA, 1,2-Dioleyloxy-3-dimethylaminopropane]
